Legend:
[1] = target: T1, Nicotinic, human α3β4 (Homo sapiens, UniProt P30926+P32297); experiment: Competition binding, human α3β4 nicotinic receptor (CHO human α3β4 membranes)
T1 construct: host or cells: CHO
Method: (§1) CHO-human α3β4 cells (obtained from ChanTest, Cleveland, Ohio, catalog #CT6021) were maintained in proliferative growth phase in Ham's F12 (VWR) with 10% fetal bovine serum (Invitrogen), 0.25 mg/mL geneticin; 0.4 mg/ml zeocin. The amino acid sequences encoded by the transfected cDNA constructs used to generate the CHO-human α3β4 cells are identical to the translated sequences for GenBank accession numbers NM_000743.2 and NM_000750.3, respectively.
(§2) Cells were harvested in ice-cold PBS, pH 7.4, then homogenized with a Polytron (Kinematica GmbH, Switzerland). Homogenates were centrifuged at 40,000 g for 20 minutes (4° C.). The pellet was re-suspended in PBS and protein concentration determined using the Pierce BCA Protein Assay kit (Pierce Biotechnology, Rockford, Ill.).
(§3) Binding to nicotinic receptors was assayed on membranes using standard methods adapted from published procedures (Lippiello and Fernandes 1986; Davies et al., 1999). In brief, membranes were reconstituted from frozen stocks and incubated for 2 h on ice in 150 μl assay buffer (50 mM Tris, 154 mM NaCl, pH 7.4) in the presence of competitor compound (0.001 nM to 100 μM) and radioligand. [^3H]-nicotine (L-(−)-[N-methyl-^3H]-nicotine, 69.5 Ci/mmol, Perkin-Elmer Life Sciences, Waltham, Mass.) was used for human α4β2 binding studies. [^3H]-epibatidine (52 Ci/mmol, Perkin-Elmer Life Sciences) was used for binding studies at the other nicotinic receptor subtypes. Incubation was terminated by rapid filtration on a multimanifold tissue harvester (Brandel, Gaithersburg, Md.) using GF/B filters presoaked in 0.33% polyethyleneimine (w/v) to reduce non-specific binding. Filters were washed 3 times with ice-cold assay buffer and the retained radioactivity was determined by liquid scintillation counting.
(§4) Binding data were expressed as percent total control binding. Replicates for each point were averaged and plotted against the log of drug concentration. The IC50 (concentration of the compound that produces 50% inhibition of binding) was determined by least squares non-linear regression using GraphPad Prism software (GraphPAD, San Diego, Calif.). Ki was calculated using the Cheng-Prusoff equation (Cheng and Prusoff, 1973).

[2] = target: human α4β2 (LS) (Homo sapiens, UniProt P17787+P43681); experiment: Calcium flux inhibition, SH-EP1-human α4β2 maintained at 37° C. (LS); assay type: cell-based
Method: (§5) SH-EP1-human α4β2 (Eaton et al., 2003), cell lines were obtained from Dr. Ron Lukas (Barrow Neurological Institute). Cells were maintained in proliferative growth phase in Dulbecco's modified Eagle's medium (Invitrogen, Carlsbad, Calif.) with 10% horse serum (Invitrogen), 5% fetal bovine serum (HyClone, Logan Utah), 1 mM sodium pyruvate, 4 mM L-glutamine. For maintenance of stable transfectants, the α4β2 cell media was supplemented with 0.25 mg/mL zeocin and 0.13 mg/mL hygromycin B.
Forty-eight hours prior to each experiment, cells were plated in 96 well black-walled, clear bottom plates (Corning, Corning, N.Y.) at 60-100,000 cells/well. On the day of the experiment, growth medium was gently removed, 200 μL 1×FLIPR Calcium 4 Assay reagent (Molecular Devices, Sunnyvale, Calif.) in assay buffer (20 mM HEPES, 7 mM TRIS base, 4 mM CaCl2, 5 mM D-glucose, 0.8 mM MgSO4, 5 mM KCl, 0.8 mM MgCl2, 120 mM N-methyl D-glucamine, 20 mM NaCl, pH 7.4 for SH-EP1-human α4β2 cells or 10 mM HEPES, 2.5 mM CaCl2, 5.6 mM D-glucose, 0.8 mM MgSO4, 5.3 mM KCl, 138 mM NaCl, pH 7.4 with TRIS-base for all other cell lines) was added to each well and plates were incubated at 37° C. for 1 hour (29° C. for the 29° C.-treated SH-EP1-human α4β2 cells). For inhibition studies, competitor compound (10 pM-10 μM) was added at the time of dye addition. The plates were removed from the incubator and allowed to equilibrate to room temperature. Plates were transferred to a FLIPR Tetra fluorometric imaging plate reader (Molecular Devices) for addition of compound and monitoring of fluorescence (excitation 485 nm, emission 525 nm). The amount of calcium flux was compared to both a positive (nicotine) and negative control (buffer alone). The positive control was defined as 100% response and the results of the test compounds were expressed as a percentage of the positive control. […] (LS), and 20 μM for SH-SY5Y cells or CHO_human α3β4.

[3] = target: T2, Nicotinic, human α7 (Homo sapiens, UniProt P36544); experiment: Competition binding, human α7 nicotinic receptor (CHO human α7 membranes); conditions: [3H]TC-12018 0.5 nM
T2 construct: host or cells: CHO
Method: as §1, with “α7” for “α3β4”, “#CT6201)” for “#CT6021)”, “NM_000746.4 (α7)” for “NM_000743.2”, “NM_024557.4 (hRIC3).” for “NM_000750.3, respectively.”
as §2
Binding to nicotinic receptors was assayed on membranes using standard methods adapted from published procedures (Lippiello and Fernandes 1986; Davies et al., 1999). […] Filters were washed 3 times with ice-cold assay buffer and the retained radioactivity was determined by liquid scintillation counting.
Binding data were expressed as percent total control binding. […] Ki was calculated using the Cheng-Prusoff equation (Cheng and Prusoff, 1973).

[4] = target: human α4β2 (HS) (Homo sapiens, UniProt P17787+P43681); experiment: Calcium flux inhibition, SH-EP1-human α4β2 treated at 29° C. (HS); assay type: cell-based
Method: as §5
(§6) Forty-eight hours prior to each experiment, cells were plated in 96 well black-walled, clear bottom plates (Corning, Corning, N.Y.) at 60-100,000 cells/well. On the day of the experiment, growth medium was gently removed, 200 μL 1×FLIPR Calcium 4 Assay reagent (Molecular Devices, Sunnyvale, Calif.) in assay buffer (20 mM HEPES, 7 mM TRIS base, 4 mM CaCl2, 5 mM D-glucose, 0.8 mM MgSO4, 5 mM KCl, 0.8 mM MgCl2, 120 mM N-methyl D-glucamine, 20 mM NaCl, pH 7.4 for SH-EP1-human α4β2 cells or 10 mM HEPES, 2.5 mM CaCl2, 5.6 mM D-glucose, 0.8 mM MgSO4, 5.3 mM KCl, 138 mM NaCl, pH 7.4 with TRIS-base for all other cell lines) was added to each well and plates were incubated at 37° C. for 1 hour (29° C. for the 29° C.-treated SH-EP1-human α4β2 cells). For inhibition studies, competitor compound (10 pM-10 μM) was added at the time of dye addition. The plates were removed from the incubator and allowed to equilibrate to room temperature. Plates were transferred to a FLIPR Tetra fluorometric imaging plate reader (Molecular Devices) for addition of compound and monitoring of fluorescence (excitation 485 nm, emission 525 nm). The amount of calcium flux was compared to both a positive (nicotine) and negative control (buffer alone). The positive control was defined as 100% response and the results of the test compounds were expressed as a percentage of the positive control. For inhibition studies, the agonist nicotine was used at concentrations of 1 μM for SH-EP1-human α4β2 treated at 29° C. (HS), 10 μM for SH-EP1-human α4β2 maintained at 37° C. (LS), and 20 μM for SH-SY5Y cells or CHO_human α3β4.

[5] = target: Nicotinic, human α4β2 (Homo sapiens, UniProt P17787+P43681); experiment: Competition binding, human α4β2 nicotinic receptor ([3H]nicotine)
Method: as §5, §2, §3, §4

[6] = target: T3, human α3β4 (Homo sapiens, UniProt P30926+P32297); experiment: Calcium flux inhibition, CHO-human α3β4 cells; assay type: cell-based
T3 construct: host or cells: CHO
Method: as §1, §6

Q: With `CC[C@@]12CCC[C@]1(NC)[C@H]1CC[C@@H]2C1` as the compound, how does the Ki [1] read?
A: 56 µM

Q: What about the IC50 [2] of the same compound?
A: 5 µM

Q: And the Emax ([2]; read-out: Human α4β2 Ca Flux Imax [37C/HS])?
A: 93%

Q: What about the Ki [3] of the same compound?
A: 79 µM

Q: What about the IC50 [4] of the same compound?
A: 0.6 µM

Q: What about the “Human α4β2 Ca Flux Imax [29C/HS]” value ([4]; 29° C.-treated cells (HS), nicotine 1 μM) of the same compound?
A: 98 % inh

Q: And the Ki [5]?
A: 26 µM

Q: What about the IC50 [6] of the same compound?
A: 0.17 µM

Q: And the “Human CHO α3β4 Ca Flux Imax” value ([6]; nicotine 20 μM)?
A: 97 % inh
